The test system of one experiment is Candida albicans. The experiment in a line: fluconazole-resistant Candida strain growth inhibitors – CaCi-8 strain, dry powder, set 4, dose response (AID 488950). The class given is functional, organism-based.
Experiment [1] can be described thus: Luminescence Cell-Based Dose Retest to Confirm Inhibitors of Cancer Stem Cells. [Related pubchem assays (depositor defined):AID2717, AID2721]. The class given is functional. Particulars: Homo sapiens.
The target of experiment [2] is Neurotensin receptor type 1 (Homo sapiens, UniProt P30989). The experiment is classed as functional.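 Further: Image-based confirmatory dose-response assay measuring agonist activity at NTR1; NTR1-expressing U2OS osteosarcoma cells imaged for beta-arrestin GFP spot formation; agonist potency where compounds increase beta-arrestin recruitment.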
In experiment [3] the target is T1, Fatty acid synthase (Homo sapiens, UniProt P49327). The experiment in a line: inhibition of human FAS-TE enzyme activity – biochemical, endpoint fluorescence intensity, uHTS hits, dose response (AID 624327).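 Further: fluorescence from hydrolysis of an O-methyl fluorescein acyl ester substrate by the enzyme.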 The experiment is classed as functional.
For experiment [4], the target named is T2, Endoribonuclease toxin MazF (Escherichia coli K-12, UniProt P0AE70). The experiment in a line: substrate-only fluorescence increase artefacts – biochemical, single-stranded RNase substrate, counter-screen for MazEF activator project, dose response (AID 588502). The experiment is classed as functional.
Experiment [5] is described as follows: viability of uninfected HEp-2 cells – cell-based, HTS, cytotoxicity control for RSV inhibitor project, dose response (AID 2410). The class given is functional. Particulars: human respiratory syncytial virus.
The target in experiment [6] is T1, Fatty acid synthase. The experiment in a line: inhibition of human FAS-TE enzyme activity – biochemical, kinetic fluorescence intensity, dose response (AID 624326).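 Further: rate of fluorescence rise from hydrolysis of a fluorogenic O-methyl fluorescein ester substrate.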 The class given is functional.
Experiment [7] deals with T2, Endoribonuclease toxin MazF. The experiment in a line: activation of MazEF endoribonuclease cleavage – biochemical, fluorescence, single-stranded RNA substrate, uHTS hits, dose response (AID 588481). The experiment is classed as functional.
The target of a further experiment is T3, Streptokinase A (Streptococcus pyogenes serotype M1, UniProt P10520).
T3 sequence (P10520 whole entry): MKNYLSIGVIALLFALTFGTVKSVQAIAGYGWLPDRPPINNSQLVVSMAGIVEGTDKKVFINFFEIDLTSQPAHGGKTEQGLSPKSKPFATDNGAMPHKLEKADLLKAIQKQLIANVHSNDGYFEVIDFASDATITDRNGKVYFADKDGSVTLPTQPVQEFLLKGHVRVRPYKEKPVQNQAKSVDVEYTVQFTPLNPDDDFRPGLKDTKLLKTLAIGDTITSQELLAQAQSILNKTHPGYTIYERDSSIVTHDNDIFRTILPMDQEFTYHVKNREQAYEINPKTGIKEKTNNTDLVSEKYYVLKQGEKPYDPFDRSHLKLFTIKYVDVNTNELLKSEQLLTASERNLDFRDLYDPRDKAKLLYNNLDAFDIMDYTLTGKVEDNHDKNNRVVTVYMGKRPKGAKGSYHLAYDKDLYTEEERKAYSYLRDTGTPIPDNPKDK
The experiment in a line: viability-normalized secreted streptokinase activity reduction – plasminogen activation absorbance, OD405, dose response (AID 1914).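 Further: secreted streptokinase activity via plasminogen activation per viability signal from cell pellet.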 The experiment is classed as functional, Streptococcus pyogenes M1 GAS.

The subject of another experiment is Streptococcus. The experiment in a line: GAS UMAA2166 growth inhibition – luminescence, BacTiterGlo, counter-screen for streptokinase expression inhibitor project, dose response (AID 1915).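 Further: potency for reduction of bacterial viability or growth.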 The experiment is classed as functional, organism-based.
The test system of experiment [8] is Streptococcus sp. 'group A'. The experiment in a line: Streptococcus pyogenes SK(-)GAS viability under kanamycin – luminescence, BacTiterGlo, confirmation, counter-screen for streptokinase expression inhibitor project, dose response (AID 1900). The experiment is classed as functional, organism-based.
In experiment [9] the test system is INS1. The experiment in a line: INS-1E mitochondrial potential loss inhibitors – cell-based, JC-1 fluorescence, dry powder, set 2, dose response (AID 488867). Conditions: Rattus norvegicus. The experiment is classed as functional.
The nature of experiment [10]: suppression of NO production in INS-1E cells – cell-based, Griess absorbance, dry powder, set 3, dose response (AID 488870). The experiment is classed as functional. Particulars: Rattus norvegicus.
A further experiment deals with T4, Hexokinase HKDC1 (Homo sapiens, UniProt Q2TB90).
T4 sequence (Q2TB90 whole entry): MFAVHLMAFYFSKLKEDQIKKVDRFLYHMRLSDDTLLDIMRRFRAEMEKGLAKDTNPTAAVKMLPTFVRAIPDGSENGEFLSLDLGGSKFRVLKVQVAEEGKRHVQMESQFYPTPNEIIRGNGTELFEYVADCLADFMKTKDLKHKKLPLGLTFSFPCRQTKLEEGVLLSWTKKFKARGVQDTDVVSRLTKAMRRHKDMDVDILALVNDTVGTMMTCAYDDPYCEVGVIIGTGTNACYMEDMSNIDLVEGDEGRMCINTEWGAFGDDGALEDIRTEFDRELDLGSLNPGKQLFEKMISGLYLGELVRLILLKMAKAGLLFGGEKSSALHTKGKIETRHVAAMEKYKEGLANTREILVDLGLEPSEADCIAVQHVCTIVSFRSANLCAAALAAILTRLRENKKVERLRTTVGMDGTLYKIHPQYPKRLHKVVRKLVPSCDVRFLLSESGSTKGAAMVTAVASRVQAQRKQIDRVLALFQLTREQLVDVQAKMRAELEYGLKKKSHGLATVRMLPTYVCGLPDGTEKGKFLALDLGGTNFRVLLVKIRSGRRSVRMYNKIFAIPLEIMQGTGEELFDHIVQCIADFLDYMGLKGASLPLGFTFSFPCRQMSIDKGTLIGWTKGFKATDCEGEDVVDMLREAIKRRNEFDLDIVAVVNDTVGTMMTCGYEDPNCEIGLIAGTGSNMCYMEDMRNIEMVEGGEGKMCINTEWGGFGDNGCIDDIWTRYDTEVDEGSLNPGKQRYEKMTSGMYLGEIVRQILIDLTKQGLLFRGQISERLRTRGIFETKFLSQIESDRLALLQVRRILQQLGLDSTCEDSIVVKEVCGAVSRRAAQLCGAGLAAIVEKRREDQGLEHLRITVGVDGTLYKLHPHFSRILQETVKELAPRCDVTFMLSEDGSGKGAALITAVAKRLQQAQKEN
The experiment in a line: SAR analysis of small molecule inhibitors of hexokinase domain containing I (HKDC1). [Related pubchem assays (depositor defined):AID493160, AID493190]. The class given is functional.

Another experiment has as its target Hexokinase-1 (Homo sapiens, UniProt P19367). The experiment in a line: SAR analysis of small molecule inhibitors of hexokinase domain containing I (HKDC1) in the hexokinase 1 selectivity assay. [Related pubchem assays (depositor defined):AID493160, AID493190]. The class given is functional.
Experiment [11] has as its target T5, Beta-2 adrenergic receptor (Homo sapiens, UniProt P07550). The experiment in a line: ADRB2 activation measured by internalization – cell-based, FAP fluorogen, flow cytometry, cherry pick 1, dose response (AID 588763). The class given is functional.
The target of experiment [12] is T5, Beta-2 adrenergic receptor. The experiment in a line: Dose response for HTS for Beta-2AR agonists via FAP method from Powderset3. The experiment is classed as functional.
Experiment [13] is described as follows: reduction of Shn3 3'UTR-driven luciferase in osteoblasts – cell-based, Clone20 osteoblasts, firefly luciferase, cherry-picked, dose response (AID 624132).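 Further: firefly luciferase luminescence from reporter carrying the Shn3 3'UTR in osteoblasts.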 The class given is functional.
For experiment [14], the system named is BJ. The experiment in a line: BJ-TERT-LT-ST fibroblast viability loss – cell-based, RAS-independent, luminescence, dose response (AID 1935).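 Further: BJ fibroblasts immortalized with TERT plus LT and ST oncogenes.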 The class given is functional. Particulars: Homo sapiens.
Experiment [15] addresses Serine/threonine-protein phosphatase (Candida dubliniensis (strain CD36 / CBS 7987 / NCPF 3949 / NRRLY-17841) (Yeast), UniProt B9W6M3). The experiment in a line: blockers of CaCl2-induced CDRE-lacZ signaling – S. cerevisiae, luminescence, secondary, dose response (AID 2388).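 Further: yeast reporter cells carrying a calcineurin-responsive lacZ construct stimulated with calcium chloride; luminescent beta-galactosidase reporter signal in whole cells rather than isolated phosphatase activity; potency for inhibition where a drop in reporter signal means calcineurin blockade.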 The class given is functional, cell-based.
Experiment [16] can be described thus: cells. The experiment is classed as functional, cell-based.
A short description of experiment [17]: cells. The class given is functional, cell-based. The source holds these as a separate data set.
Experiment [18] concerns BJ. The experiment in a line: cells. The experiment is classed as functional, cell-based. Conditions: Homo sapiens.
The nature of experiment [19]: fluconazole-exposed Candida albicans growth modulators – fluorescence, retest, confirmation (AID 2467). The experiment is classed as functional, cell-based.
In experiment [20] the target is Heat shock protein HSP 90-alpha (Homo sapiens, UniProt P07900). The experiment is classed as functional, organism-based.
Experiment [21] concerns BJ. The experiment in a line: BJ-TERT fibroblast viability loss – cell-based, RAS-independent, luminescence, dose response (AID 1933). The class given is functional. Conditions: Homo sapiens.
The target of experiment [22] is ATP-dependent molecular chaperone HSP82 (Candida albicans (strain WO-1) (Yeast), UniProt C4YTQ8). The experiment in a line: steroid-induced GRE reporter decrease in yeast – S. cerevisiae, luminescence, Hsp90 inhibitor project, dose response (AID 2400).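 Further: beta-galactosidase luminescence from glucocorticoid response element reporter as proxy for Hsp90 function; inhibitor potency where signal loss means Hsp90 inhibition.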 The class given is functional, cell-based.
For experiment [23], the system named is INS1. The experiment in a line: INS-1E survival protection against cytokine death – cell-based, luminescence, retest, dose response (AID 449756).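 Further: cell death triggered by IL-1 beta plus TNF-alpha plus IFN-gamma mixture; protective hits raise ATP signal compared with cytokine alone wells.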 The experiment is classed as functional. Particulars: Rattus norvegicus.
Experiment [24] deals with Vero. The experiment in a line: cells. The experiment is classed as functional. Conditions: Chlorocebus sabaeus.
The next experiment addresses Cytochrome P450 2C19 (Homo sapiens, UniProt P33261). The experiment in a line: Cytochrome panel assay with activity outcomes. Panel member name: p450-cyp2c19 Compounds with AC50 equal or less than 10 uM are considered active. Conditions: read-out: AC50. The class given is functional.
Experiment [25] concerns Vero. The experiment in a line: cells. The class given is functional, cell-based. Conditions: Chlorocebus sabaeus.
Experiment [26] is described as follows: DRD fibroblast viability loss – cell-based, non-viral oncogenic, luminescence, dose response (AID 1934). The class given is functional. Particulars: Homo sapiens.
In a further experiment the target is Cytochrome P450 2D6 (Homo sapiens, UniProt P10635).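 Further: CYP2D6 member of a cytochrome P450 panel assay.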
A short description of experiment [27]: non-specific 3'UTR reporter inhibition in Clone20-Shn3RL – cell-based, Renilla luciferase, cherry-picked, counter-screen for Shn3 inhibitor project, dose response (AID 624133). The experiment is classed as functional.
The nature of experiment [28]: NIH-3T3 fibroblast cytotoxicity, dose response, cytotoxicity control, cell-based, fluorescence, Alamar Blue, secondary assay (AID 2327).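 Further: NIH-3T3 mouse fibroblasts cultured with fluconazole at 8 µg/mL.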 The class given is functional.
In the next experiment the target is T6, Cytochrome P450 1A2 (Homo sapiens, UniProt P05177).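 Further: PubChem cytochrome P450 panel assay, CYP1A2 panel member.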
T6 sequence (P05177 whole entry): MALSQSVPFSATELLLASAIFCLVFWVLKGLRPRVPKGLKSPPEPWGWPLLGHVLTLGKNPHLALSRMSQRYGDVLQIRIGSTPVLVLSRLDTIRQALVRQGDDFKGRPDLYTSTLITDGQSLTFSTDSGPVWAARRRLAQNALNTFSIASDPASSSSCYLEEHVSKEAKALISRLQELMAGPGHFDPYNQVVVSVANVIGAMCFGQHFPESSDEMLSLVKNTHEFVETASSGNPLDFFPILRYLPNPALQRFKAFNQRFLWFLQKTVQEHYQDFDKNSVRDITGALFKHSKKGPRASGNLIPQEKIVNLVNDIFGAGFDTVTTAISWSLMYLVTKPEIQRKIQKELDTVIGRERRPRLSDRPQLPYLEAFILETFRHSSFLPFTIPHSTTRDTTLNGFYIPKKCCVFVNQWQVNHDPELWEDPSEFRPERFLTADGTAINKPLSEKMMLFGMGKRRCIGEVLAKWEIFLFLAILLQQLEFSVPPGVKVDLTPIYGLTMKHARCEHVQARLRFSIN

Activity calls are given as the source filed them.

T1 sequence (P49327 whole entry): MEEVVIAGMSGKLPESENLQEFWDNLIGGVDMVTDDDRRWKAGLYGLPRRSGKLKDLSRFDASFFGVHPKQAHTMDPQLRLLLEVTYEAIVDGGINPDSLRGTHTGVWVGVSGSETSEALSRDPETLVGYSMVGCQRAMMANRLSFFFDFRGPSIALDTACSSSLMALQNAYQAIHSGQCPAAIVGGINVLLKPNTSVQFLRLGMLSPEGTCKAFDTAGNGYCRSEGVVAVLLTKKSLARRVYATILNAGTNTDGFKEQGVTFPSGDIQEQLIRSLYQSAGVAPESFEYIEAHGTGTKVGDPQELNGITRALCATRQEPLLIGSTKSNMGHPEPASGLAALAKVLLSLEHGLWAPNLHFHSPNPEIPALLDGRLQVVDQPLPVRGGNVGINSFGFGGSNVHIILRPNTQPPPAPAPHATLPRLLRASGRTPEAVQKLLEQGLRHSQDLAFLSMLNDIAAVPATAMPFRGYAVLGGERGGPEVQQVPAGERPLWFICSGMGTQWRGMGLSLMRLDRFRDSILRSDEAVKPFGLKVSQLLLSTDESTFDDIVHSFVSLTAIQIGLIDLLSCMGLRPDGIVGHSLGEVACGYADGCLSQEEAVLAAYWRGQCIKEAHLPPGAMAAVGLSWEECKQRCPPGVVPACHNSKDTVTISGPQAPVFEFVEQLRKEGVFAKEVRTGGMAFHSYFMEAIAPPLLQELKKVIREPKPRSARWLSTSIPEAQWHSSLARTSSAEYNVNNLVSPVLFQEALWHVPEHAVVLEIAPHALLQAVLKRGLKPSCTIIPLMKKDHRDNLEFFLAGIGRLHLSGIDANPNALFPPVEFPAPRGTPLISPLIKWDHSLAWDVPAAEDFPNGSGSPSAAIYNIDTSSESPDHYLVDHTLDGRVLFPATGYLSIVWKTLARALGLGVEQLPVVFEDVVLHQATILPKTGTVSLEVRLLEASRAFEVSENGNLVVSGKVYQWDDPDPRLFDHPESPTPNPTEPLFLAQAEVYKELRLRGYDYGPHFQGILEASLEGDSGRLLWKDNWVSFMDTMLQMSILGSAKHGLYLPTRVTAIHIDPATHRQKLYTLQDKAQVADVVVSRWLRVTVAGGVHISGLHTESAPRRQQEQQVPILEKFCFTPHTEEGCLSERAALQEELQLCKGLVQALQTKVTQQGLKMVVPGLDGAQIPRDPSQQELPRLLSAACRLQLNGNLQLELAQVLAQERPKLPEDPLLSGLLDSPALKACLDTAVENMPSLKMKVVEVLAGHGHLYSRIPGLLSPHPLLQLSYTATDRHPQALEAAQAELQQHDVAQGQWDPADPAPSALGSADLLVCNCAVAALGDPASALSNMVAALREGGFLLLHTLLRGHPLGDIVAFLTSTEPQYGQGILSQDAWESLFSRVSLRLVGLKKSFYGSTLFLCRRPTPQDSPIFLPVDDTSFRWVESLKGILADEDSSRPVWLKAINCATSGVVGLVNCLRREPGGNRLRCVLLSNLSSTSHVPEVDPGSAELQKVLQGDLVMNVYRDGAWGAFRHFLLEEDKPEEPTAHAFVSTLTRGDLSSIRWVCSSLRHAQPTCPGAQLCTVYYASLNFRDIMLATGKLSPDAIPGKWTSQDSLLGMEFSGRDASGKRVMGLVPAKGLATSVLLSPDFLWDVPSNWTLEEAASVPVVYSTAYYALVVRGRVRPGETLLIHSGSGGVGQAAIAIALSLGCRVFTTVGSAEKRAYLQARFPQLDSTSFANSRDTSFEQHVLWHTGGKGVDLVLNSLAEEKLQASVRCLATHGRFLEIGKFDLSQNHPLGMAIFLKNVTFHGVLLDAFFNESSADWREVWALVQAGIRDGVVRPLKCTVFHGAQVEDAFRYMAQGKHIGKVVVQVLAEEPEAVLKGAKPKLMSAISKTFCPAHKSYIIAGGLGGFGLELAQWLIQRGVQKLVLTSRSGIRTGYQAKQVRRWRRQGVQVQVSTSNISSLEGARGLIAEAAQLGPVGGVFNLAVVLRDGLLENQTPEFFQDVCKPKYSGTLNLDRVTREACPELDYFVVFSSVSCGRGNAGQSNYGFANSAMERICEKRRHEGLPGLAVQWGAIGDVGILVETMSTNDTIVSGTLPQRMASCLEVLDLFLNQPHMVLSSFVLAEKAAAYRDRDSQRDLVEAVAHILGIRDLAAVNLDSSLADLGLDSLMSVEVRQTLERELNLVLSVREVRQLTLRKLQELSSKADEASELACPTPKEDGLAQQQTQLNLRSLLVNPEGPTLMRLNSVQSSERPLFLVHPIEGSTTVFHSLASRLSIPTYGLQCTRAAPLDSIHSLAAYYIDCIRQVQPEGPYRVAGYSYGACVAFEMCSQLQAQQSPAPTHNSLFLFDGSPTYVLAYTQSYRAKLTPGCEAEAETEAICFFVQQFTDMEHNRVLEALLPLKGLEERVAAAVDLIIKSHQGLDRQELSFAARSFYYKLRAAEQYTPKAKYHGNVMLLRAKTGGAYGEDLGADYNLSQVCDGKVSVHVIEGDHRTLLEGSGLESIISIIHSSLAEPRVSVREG
T5 sequence (P07550 whole entry): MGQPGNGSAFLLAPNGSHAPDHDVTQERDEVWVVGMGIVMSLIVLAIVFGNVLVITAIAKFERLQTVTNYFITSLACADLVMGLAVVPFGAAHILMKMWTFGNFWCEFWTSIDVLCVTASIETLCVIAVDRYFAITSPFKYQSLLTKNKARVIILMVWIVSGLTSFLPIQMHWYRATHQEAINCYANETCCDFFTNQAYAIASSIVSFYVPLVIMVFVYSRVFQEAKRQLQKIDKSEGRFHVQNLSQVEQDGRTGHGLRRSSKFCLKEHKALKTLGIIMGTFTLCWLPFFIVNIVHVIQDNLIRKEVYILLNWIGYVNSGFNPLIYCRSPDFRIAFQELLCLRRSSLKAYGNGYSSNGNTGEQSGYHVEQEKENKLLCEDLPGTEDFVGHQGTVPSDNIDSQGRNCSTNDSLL
T2 sequence (P0AE70 whole entry): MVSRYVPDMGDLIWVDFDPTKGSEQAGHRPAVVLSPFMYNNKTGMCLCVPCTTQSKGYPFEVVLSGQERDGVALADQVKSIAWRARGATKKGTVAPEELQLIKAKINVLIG
Sequence of Cytochrome P450 2C19 (P33261 whole entry): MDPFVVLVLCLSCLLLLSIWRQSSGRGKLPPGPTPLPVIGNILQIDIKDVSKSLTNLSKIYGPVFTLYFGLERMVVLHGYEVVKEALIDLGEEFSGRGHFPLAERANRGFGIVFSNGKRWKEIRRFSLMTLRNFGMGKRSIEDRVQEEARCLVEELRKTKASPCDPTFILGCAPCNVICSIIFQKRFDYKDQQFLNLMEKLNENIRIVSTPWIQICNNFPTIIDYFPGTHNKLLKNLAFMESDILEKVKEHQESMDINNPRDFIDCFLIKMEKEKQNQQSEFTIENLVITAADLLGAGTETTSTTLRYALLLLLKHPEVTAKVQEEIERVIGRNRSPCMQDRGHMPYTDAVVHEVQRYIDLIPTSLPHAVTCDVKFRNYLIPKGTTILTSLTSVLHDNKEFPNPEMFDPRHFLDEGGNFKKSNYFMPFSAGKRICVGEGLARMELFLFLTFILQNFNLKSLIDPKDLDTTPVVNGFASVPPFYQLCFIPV
Sequence of Serine/threonine-protein phosphatase (B9W6M3 whole entry): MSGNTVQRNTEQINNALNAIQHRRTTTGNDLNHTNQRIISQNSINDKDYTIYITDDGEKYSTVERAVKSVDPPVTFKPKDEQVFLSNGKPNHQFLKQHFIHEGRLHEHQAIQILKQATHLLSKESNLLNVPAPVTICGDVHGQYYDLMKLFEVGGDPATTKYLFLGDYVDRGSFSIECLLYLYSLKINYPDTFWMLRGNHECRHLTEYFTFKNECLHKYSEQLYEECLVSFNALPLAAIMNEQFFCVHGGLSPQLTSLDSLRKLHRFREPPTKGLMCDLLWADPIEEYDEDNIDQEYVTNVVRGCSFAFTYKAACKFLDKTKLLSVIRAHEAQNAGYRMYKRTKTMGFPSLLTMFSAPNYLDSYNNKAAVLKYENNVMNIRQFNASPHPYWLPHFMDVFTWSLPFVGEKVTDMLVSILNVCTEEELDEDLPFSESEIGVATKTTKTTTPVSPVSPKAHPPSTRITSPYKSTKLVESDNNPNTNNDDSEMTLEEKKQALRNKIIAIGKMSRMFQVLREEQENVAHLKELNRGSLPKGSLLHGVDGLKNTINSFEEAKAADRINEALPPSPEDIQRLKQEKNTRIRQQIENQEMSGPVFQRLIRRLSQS
Sequence of ATP-dependent molecular chaperone HSP82 (C4YTQ8 whole entry): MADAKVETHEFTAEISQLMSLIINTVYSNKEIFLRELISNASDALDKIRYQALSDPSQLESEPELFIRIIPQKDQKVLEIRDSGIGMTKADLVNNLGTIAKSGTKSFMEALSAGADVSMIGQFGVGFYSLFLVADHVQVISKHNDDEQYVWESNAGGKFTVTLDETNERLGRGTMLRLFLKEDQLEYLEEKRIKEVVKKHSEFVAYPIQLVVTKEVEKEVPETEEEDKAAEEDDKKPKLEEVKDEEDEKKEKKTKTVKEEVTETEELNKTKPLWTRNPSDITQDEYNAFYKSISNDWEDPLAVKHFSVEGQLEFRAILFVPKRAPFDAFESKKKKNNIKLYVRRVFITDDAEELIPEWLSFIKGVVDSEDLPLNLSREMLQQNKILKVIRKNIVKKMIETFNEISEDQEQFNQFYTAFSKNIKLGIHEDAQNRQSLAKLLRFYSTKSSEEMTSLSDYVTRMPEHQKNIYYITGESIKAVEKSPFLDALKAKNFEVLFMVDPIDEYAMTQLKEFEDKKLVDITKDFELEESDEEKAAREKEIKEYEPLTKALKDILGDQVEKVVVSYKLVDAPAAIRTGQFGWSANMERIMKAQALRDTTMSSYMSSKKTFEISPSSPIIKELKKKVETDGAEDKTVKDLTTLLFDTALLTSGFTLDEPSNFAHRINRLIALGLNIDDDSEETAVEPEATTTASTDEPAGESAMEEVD

Consider `O=C(c1ccc(Cl)cc1)N1CCN(c2ccnc3ccccc23)CC1`, for which, in the experiment with Candida albicans, the concentration at half-maximal activity (AC50) was 9.81 µM (active).

For the compound `O=[N+]([O-])c1ccc(-c2nc(Nc3cccc(O)c3)c3ccccc3n2)cc1`, the AC50 in experiment [1] was 3.24 µM (active). Besides, the EC50 in [2] was 15.3 µM (active); in experiment [4] it was > 99 µM (inactive); in experiment [7], > 99 µM (inactive); on Streptokinase A, > 150 µM (not active); in the experiment with Streptococcus it was 8.36 µM (active); in experiment [8], 11.4 µM (active). For the same compound, the IC50 at Fatty acid synthase [3] is 12.9 µM (active); at Fatty acid synthase [6], 13.2 µM (active). In [5], the CC50 is 22 µM (active).

As for `C[C@@H]1CN([C@@H](C)CO)C(=O)c2cccc(NC(=O)Nc3cccc4ccccc34)c2O[C@H]1CN(C)S(=O)(=O)c1ccc2c(c1)OCCCO2`, the AC50 with INS1 [9] was 253 µM (active); in [10], 32.2 µM (active).

Turning to `O=c1c2ccccc2nc(/C=C/c2ccncc2)n1-c1ccccc1`, the IC50 on Hexokinase HKDC1 and on Hexokinase-1 was > 80 µM (inactive) each time.

Turning to `CC(Oc1ccc(Cl)cc1Cl)c1nc(-c2ccc(NC(=O)c3ccccn3)cc2)no1` (stereo not drawn), the EC50 in experiment [11] was 973 nM (active); in [12], 88.3 nM (active).

As for `Oc1c(CN2CCN(c3ccccc3)CC2)cc(Br)c2cccnc12`, the half-maximal activity concentration (AC50) was 1.92 µM (active) in experiment [13]; 4.59 µM (active) in experiment [20]; 2.42 µM (active) in the experiment with INS1 [23]; 3.98 µM (inconclusive) on Cytochrome P450 2C19; 3.98 µM (inconclusive) on Cytochrome P450 2D6; 1.84 µM (active) in [27]. Further, the AC50 on Cytochrome P450 1A2 is 1.26 µM (inconclusive). Also, the EC50 in the experiment with BJ [14] is 8.16 µM (inconclusive); in experiment [15] it was > 180 µM (inactive); in “cells [16]” it was > 350 µM (not active); in the experiment “cells [17]” it was 62.6 µM (active); in the experiment with BJ [18], 12.7 µM (inconclusive); in [19], 656 nM (active). In addition, the EC50 in the experiment on BJ [21] is 5.2 µM (active); in experiment [22] it was 21.3 µM (active); in [26] it was 14 µM (active); with Streptococcus, 2.95 µM (active); in experiment [28], > 160 µM (inconclusive); in experiment [8], 1.47 µM (active). In addition, the CC50 in the experiment with Vero [24] is 3.51 µM (active). In addition, the IC50 in the experiment on Vero [25] is > 12.5 µM (active).

The values are drawn from ChEMBL document CHEMBL1201862, “PubChem BioAssay data set” (2004).
